# According to patent US20100267561A1, “HERBICIDAL PYRIDAZINONE DERIVATIVES” (priority 2007, published 2010):
# Where two headings read alike, the source gives them in different places.
# What was measured:
# Assay in all cases: Test B pre-/postemergence plant response
# Assay type in all cases: in vivo
# [1] = system: woolly cupgrass (Eriochloa villosa); conditions: Eriochloa villosa, pre-emergence, Preemergence, read-out: Plant response rating, Cupgrass, Woolly
# Outline: (§1)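 Preemergence and postemergence (plants 2-18 cm, 1- to 4-leaf stage) applications used test chemicals in a non-phytotoxic solvent with surfactant. Plants were held in a greenhouse 13 to 15 days, then rated visually against controls on a 0-100 scale (0 no effect, 100 complete control).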
# [2] = system: velvetleaf (Abutilon theophrasti); conditions: Abutilon theophrasti, read-out: Plant response rating, Velvetleaf; for pest or weed control at 31 g/ha: 31 g ai/ha, 100 complete control; for pest or weed control at 62 g/ha: 62 g ai/ha; for pest or weed control at 62 g/ha / pest or weed control at 125 g/ha / pest or weed control at 250 g/ha: scale 0 to 100; for pest or weed control at 125 g/ha: 125 g ai/ha; for pest or weed control at 250 g/ha: 250 g ai/ha
# Outline: as §1
# kochia (Kochia scoparia) = system: kochia (Kochia scoparia)
# Outline: as §1
# corn (Zea mays) = conditions: Zea mays; for Corn plant response rating (crop injury, 0 = no effect, 100 = complete kill) at 31 g/ha: 31 g ai/ha, 100 complete control; for Corn plant response rating (crop injury, 0 = no effect, 100 = complete kill) at 62 g/ha: 62 g ai/ha; for Corn plant response rating (crop injury, 0 = no effect, 100 = complete kill) at 62 g/ha / Corn plant response rating (crop injury, 0 = no effect, 100 = complete kill) at 125 g/ha / Corn plant response rating (crop injury, 0 = no effect, 100 = complete kill) at 250 g/ha: scale 0 to 100; for Corn plant response rating (crop injury, 0 = no effect, 100 = complete kill) at 125 g/ha: 125 g ai/ha; for Corn plant response rating (crop injury, 0 = no effect, 100 = complete kill) at 250 g/ha: 250 g ai/ha
# Outline: as §1
# [3] = system: bermudagrass (Cynodon dactylon); conditions: for pest or weed control at 31 g/ha: 31 g ai/ha, 100 complete control; for pest or weed control at 62 g/ha: 62 g ai/ha; for pest or weed control at 125 g/ha: 125 g ai/ha
# Outline: as §1
# [4] = system: goosegrass (Eleusine indica); conditions: Eleusine indica, read-out: Plant response rating, Goosegrass; for pest or weed control at 31 g/ha: 31 g ai/ha, 100 complete control; for pest or weed control at 62 g/ha: 62 g ai/ha; for pest or weed control at 62 g/ha / pest or weed control at 125 g/ha / pest or weed control at 250 g/ha: scale 0 to 100; for pest or weed control at 125 g/ha: 125 g ai/ha; for pest or weed control at 250 g/ha: 250 g ai/ha
# Outline: as §1
# [5] = system: cocklebur (Xanthium strumarium); conditions: Xanthium strumarium, read-out: Plant response rating, Cocklebur; for pest or weed control at 31 g/ha: 31 g ai/ha, 100 complete control; for pest or weed control at 62 g/ha: 62 g ai/ha; for pest or weed control at 62 g/ha / pest or weed control at 125 g/ha / pest or weed control at 250 g/ha: scale 0 to 100; for pest or weed control at 125 g/ha: 125 g ai/ha; for pest or weed control at 250 g/ha: 250 g ai/ha
# Outline: as §1
# [6] = post-emergence, Postemergence, scale 0 to 100, 0 no effect
# [7] = pre-emergence, Preemergence, 0 to 100 scale, 0 no effect
# [8] = Cynodon dactylon, post-emergence, Postemergence, scale 0 to 100, read-out: Plant response rating, Bermudagrass
# [9] = Cynodon dactylon, pre-emergence, Preemergence, scale 0 to 100, read-out: Plant response rating, Bermudagrass
structure (smiles),measurement,setting,value
"Cc1cc(-c2ccc(C(F)(F)F)cc2)nn1-c1c(O)cnn(C)c1=O [Compound 1, 5-hydroxy-2-methyl-4-[5-methyl-3-[4-(trifluoromethyl)phenyl]-1H-pyrazol-1-yl]-3(2H)-pyridazinone]",pest or weed control at 31 g/ha,"[1]; 31 g ai/ha, 0 to 100 scale, 0 no effect, 100 complete control",85%
same,pest or weed control at 62 g/ha,"[1]; 62 g ai/ha, scale 0 to 100",100%
same,pest or weed control at 125 g/ha,"[1]; 125 g ai/ha, scale 0 to 100",100%
same,pest or weed control at 250 g/ha,"[1]; 250 g ai/ha, scale 0 to 100",100%
same,pest or weed control at 31 g/ha,[2]; [6],0%
same,pest or weed control at 62 g/ha,"[2]; post-emergence, Postemergence",0%
same,pest or weed control at 125 g/ha,"[2]; post-emergence, Postemergence",0%
same,pest or weed control at 250 g/ha,"[2]; post-emergence, Postemergence",50%
same,pest or weed control at 31 g/ha,[2]; [7],0%
same,pest or weed control at 62 g/ha,"[2]; pre-emergence, Preemergence",0%
same,pest or weed control at 125 g/ha,"[2]; pre-emergence, Preemergence",0%
same,pest or weed control at 250 g/ha,"[2]; pre-emergence, Preemergence",50%
same,"Plant response rating, Kochia","kochia (Kochia scoparia); Postemergence, 31 g ai/ha, scale 0 to 100, 0 no effect, 100 complete control",0
same,"Plant response rating, Kochia","kochia (Kochia scoparia); Postemergence, 62 g ai/ha, scale 0 to 100",0
same,"Plant response rating, Kochia","kochia (Kochia scoparia); Postemergence, 125 g ai/ha, scale 0 to 100",0
same,"Plant response rating, Kochia","kochia (Kochia scoparia); Postemergence, 250 g ai/ha, scale 0 to 100",20
same,"Plant response rating, Kochia","kochia (Kochia scoparia); Preemergence, 62 g ai/ha, scale 0 to 100",0
same,"Plant response rating, Kochia","kochia (Kochia scoparia); Preemergence, 125 g ai/ha, scale 0 to 100",20
same,"Corn plant response rating (crop injury, 0 = no effect, 100 = complete kill) at 31 g/ha",corn (Zea mays); [6],10%
same,"Corn plant response rating (crop injury, 0 = no effect, 100 = complete kill) at 62 g/ha","corn (Zea mays); post-emergence, Postemergence",100%
same,"Corn plant response rating (crop injury, 0 = no effect, 100 = complete kill) at 125 g/ha","corn (Zea mays); post-emergence, Postemergence",100%
same,"Corn plant response rating (crop injury, 0 = no effect, 100 = complete kill) at 250 g/ha","corn (Zea mays); post-emergence, Postemergence",100%
same,"Corn plant response rating (crop injury, 0 = no effect, 100 = complete kill) at 31 g/ha",corn (Zea mays); [7],90%
same,"Corn plant response rating (crop injury, 0 = no effect, 100 = complete kill) at 62 g/ha","corn (Zea mays); pre-emergence, Preemergence",95%
same,"Corn plant response rating (crop injury, 0 = no effect, 100 = complete kill) at 125 g/ha","corn (Zea mays); pre-emergence, Preemergence",100%
same,"Corn plant response rating (crop injury, 0 = no effect, 100 = complete kill) at 250 g/ha","corn (Zea mays); pre-emergence, Preemergence",100%
same,Bermudagrass plant response rating,"[3]; 250 g ai/ha, preemergence, 0-100 scale",100
same,pest or weed control at 31 g/ha,"[3]; Cynodon dactylon, post-emergence, Postemergence, scale 0 to 100, 0 no effect, read-out: Plant response rating, Bermudagrass",100%
same,pest or weed control at 62 g/ha,[3]; [8],100%
same,pest or weed control at 125 g/ha,[3]; [8],100%
same,pest or weed control at 250 g/ha,"[3]; Cynodon dactylon, post-emergence, Postemergence, 250 g ai/ha, scale 0 to 100, read-out: Plant response rating, Bermudagrass",100%
same,pest or weed control at 31 g/ha,"[3]; Cynodon dactylon, pre-emergence, Preemergence, 0 to 100 scale, 0 no effect, read-out: Plant response rating, Bermudagrass",100%
same,pest or weed control at 62 g/ha,[3]; [9],100%
same,pest or weed control at 125 g/ha,[3]; [9],100%
same,pest or weed control at 31 g/ha,[4]; [6],30%
same,pest or weed control at 62 g/ha,"[4]; post-emergence, Postemergence",30%
same,pest or weed control at 125 g/ha,"[4]; post-emergence, Postemergence",50%
same,pest or weed control at 250 g/ha,"[4]; post-emergence, Postemergence",85%
same,pest or weed control at 31 g/ha,[4]; [7],50%
same,pest or weed control at 62 g/ha,"[4]; pre-emergence, Preemergence",50%
same,pest or weed control at 125 g/ha,"[4]; pre-emergence, Preemergence",100%
same,pest or weed control at 250 g/ha,"[4]; pre-emergence, Preemergence",100%
same,pest or weed control at 31 g/ha,[5]; [6],0%
same,pest or weed control at 62 g/ha,"[5]; post-emergence, Postemergence",0%
same,pest or weed control at 125 g/ha,"[5]; post-emergence, Postemergence",0%
same,pest or weed control at 250 g/ha,"[5]; post-emergence, Postemergence",0%
same,pest or weed control at 31 g/ha,[5]; [7],0%
same,pest or weed control at 62 g/ha,"[5]; pre-emergence, Preemergence",0%
same,pest or weed control at 125 g/ha,"[5]; pre-emergence, Preemergence",0%
same,pest or weed control at 250 g/ha,"[5]; pre-emergence, Preemergence",0%
